# Where a name gives a salt, the structure may show the parent alone.
# Test: Assessment of hygroscopic properties: residual water weight of solutions as a function of time in a thermal container
# Assay type: physicochemical
# Settings: 50° C., humidity 30%, each compound at 5% in water, after 120 minutes, versus water as negative control (FIG. 1)
# Method: Each compound was dissolved in water (w/w) to obtain a 5% solution. To prepare a 5% two-amino acid solution, the L-arginine powder was dissolved directly in the 5% PCA sodium salt solution (w/w). To assess the hygroscopic properties of amino acids, we studied the residual water weight of different solutions as a function of time. We determined the weight of residual water in each solution after different times in an atmosphere in which temperature and humidity were controlled in a thermal container (Vötsch VC0018). The temperature used for our assays was initially set at 50° C. and later at 30° C. to approximate skin conditions more closely. Humidity was set at 30%. Using these parameters, we determined the weight of each solution before heating it and at different times during the heating. The heating lasted for 120 minutes at 50° C. and data was recorded from 45 to 120 minutes. At 30° C. the heating lasted for 135 minutes and data was recorded from 90 to 135 minutes. The residual weight expected at the end of the study which corresponds to the weight of the compound in the solution was calculated (for example, if the initial total weight for a 5% solution was 100 mg, the weight of the compound was 5 mg). The residual water weight of each solution was obtained by subtracting the expected weight of the compound from the total weight of the solution at different times. […]
row,Structure (SMILES),percentage of residual water weight (evaporation of the water contained in the solutions)
1,N=C(N)NCCC[C@H](N)C(=O)O [L-Arginine],decreased the evaporation of the water
2,"O=C1CCC(C(=O)O)N1 (centres unmarked) [PCA Na, 2-Pyrrolidone-5-carboxylic acid sodium salt]",decreased the evaporation of the water

# — patent US8795705B2, “Dermatologic compositions comprising pyrrolidone-5-carboxylic acid and at least one entity chosen from citrulline, arginine and asparagine, and uses thereof in the treatment of atopic dermatitis” (Galderma Research & Development, priority 2007, dated 2014)
